Reference: patent publication US8969325B2, “TRPV1 antagonists” (AbbVie Inc., priority 2011, dated 2015)

Columns and labels:
[1] = molecular target: T1, human TRPV1 (Homo sapiens (Human), UniProt Q8NER1); assay: Capsaicin Activation Assay (intracellular Ca2+, FLIPR); assay type: cell-based; conditions: recombinant HEK293 cells expressing hTRPV1, 50 nM capsaicin
Procedure, shortened: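 Ca2+ fluorescence was recorded by FLIPR every 1 to 5 seconds in HEK293 cells, clonally selected for stable human TRPV1 expression and plated one day ahead. Test compounds came as serial dilutions of 10 mM DMSO stocks.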

[2] = molecular target: T1, human TRPV1; assay: Acid Activation Assay (pH 5.0, intracellular Ca2+, FLIPR); assay type: cell-based; conditions: percentage of the maximal pH 5.0-induced response remaining; recombinant HEK293 hTRPV1 cells; maximum concentration tested 37.5 μM
Procedure, shortened: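 Readout: peak [Ca2+]i fluorescence over baseline on FLIPR, expressed as percentage remaining of the maximal pH 5.0-evoked signal. Stable hTRPV1-HEK293 cells with Calcium-4 dye received compound (12 half-log concentrations, maximum 37.5 μM) 3 min before acidic pH 5.0 buffer.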

T1 sequence (Q8NER1 whole entry): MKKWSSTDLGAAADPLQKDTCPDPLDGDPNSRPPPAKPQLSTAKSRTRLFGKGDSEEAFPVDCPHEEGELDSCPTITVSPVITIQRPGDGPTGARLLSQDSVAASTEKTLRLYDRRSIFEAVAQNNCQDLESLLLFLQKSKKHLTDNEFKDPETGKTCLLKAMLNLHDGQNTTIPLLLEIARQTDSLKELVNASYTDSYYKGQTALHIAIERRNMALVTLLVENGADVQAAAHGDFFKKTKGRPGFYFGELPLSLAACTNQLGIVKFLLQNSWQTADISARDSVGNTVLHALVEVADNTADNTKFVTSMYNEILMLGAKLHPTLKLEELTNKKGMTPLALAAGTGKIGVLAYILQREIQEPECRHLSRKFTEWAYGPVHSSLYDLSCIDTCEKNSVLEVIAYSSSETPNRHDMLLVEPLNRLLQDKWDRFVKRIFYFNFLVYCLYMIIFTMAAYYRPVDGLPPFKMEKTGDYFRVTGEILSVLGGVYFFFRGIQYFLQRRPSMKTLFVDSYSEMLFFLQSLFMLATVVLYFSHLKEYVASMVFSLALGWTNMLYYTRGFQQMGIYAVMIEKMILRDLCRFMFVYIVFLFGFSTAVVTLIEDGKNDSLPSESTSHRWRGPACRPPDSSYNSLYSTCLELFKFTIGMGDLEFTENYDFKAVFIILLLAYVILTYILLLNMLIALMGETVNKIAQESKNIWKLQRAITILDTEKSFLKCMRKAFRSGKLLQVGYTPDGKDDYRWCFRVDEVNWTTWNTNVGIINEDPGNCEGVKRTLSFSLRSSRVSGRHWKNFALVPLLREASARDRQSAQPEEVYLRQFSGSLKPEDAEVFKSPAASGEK

Compound | IC50 [1] | human TRPV1 H^+ (max % remain) [2]
CCC1(CC)C[C@@H](NC(=O)Nc2ccc3c(c2)NC(=O)CC3)c2ccc(Cl)cc2O1 [Example 225, 1-[(4R)-7-chloro-2,2-diethyl-3,4-dihydro-2H-chromen-4-yl]-3-(2-oxo-1,2,3,4-tetrahydroquinolin-7-yl)urea] | 130 nM | 12%
CCC1(CC)C[C@@H](NC(=O)Nc2ccc3c(c2)NC(=O)CC3)c2ccc(Cl)c(Cl)c2O1 [Example 226, 1-[(4R)-7,8-dichloro-2,2-diethyl-3,4-dihydro-2H-chromen-4-yl]-3-(2-oxo-1,2,3,4-tetrahydroquinolin-7-yl)urea] | 100 nM | 12%
CCCC1(CCC)C[C@@H](NC(=O)Nc2ccc3c(c2)NC(=O)CC3)c2cc(F)ccc2O1 [Example 227, 1-[(4R)-6-fluoro-2,2-dipropyl-3,4-dihydro-2H-chromen-4-yl]-3-(2-oxo-1,2,3,4-tetrahydroquinolin-7-yl)urea] | 220 nM | 19%
O=C1CCc2ccc(NC(=O)N[C@@H]3CC4(CCC4)Oc4ccc(F)cc43)cc2N1 [Example 228, 1-[(4R)-6-fluoro-3,4-dihydrospiro[chromene-2,1′-cyclobutan]-4-yl]-3-(2-oxo-1,2,3,4-tetrahydroquinolin-7-yl)urea] | 120 nM | 57%
CC1(C)C[C@@H](NC(=O)Nc2ccc3c(c2)NC(=O)CC3)c2cc(F)ccc2O1 [Example 232, 1-[(4R)-6-fluoro-2,2-dimethyl-3,4-dihydro-2H-chromen-4-yl]-3-(2-oxo-1,2,3,4-tetrahydroquinolin-7-yl)urea] | 140 nM | 32%
CC1(C)C[C@@H](NC(=O)Nc2ccc3c(c2)NC(=O)CC3)c2ccc(F)c(Cl)c2O1 [Example 233, 1-[(4R)-8-chloro-7-fluoro-2,2-dimethyl-3,4-dihydro-2H-chromen-4-yl]-3-(2-oxo-1,2,3,4-tetrahydroquinolin-7-yl)urea] | 350 nM | 37%
O=C1CCc2ccc(NC(=O)N[C@H]3CCOc4cc(OC(F)(F)F)ccc43)cc2N1 [Example 234, 1-(2-oxo-1,2,3,4-tetrahydroquinolin-7-yl)-3-[(4S)-7-(trifluoromethoxy)-3,4-dihydro-2H-chromen-4-yl]urea] | 90 nM | 27%
CC1(C)C[C@@H](NC(=O)Nc2ccc3c(c2)NC(=O)CC3)c2ccc(Cl)cc2O1 [Example 235, 1-[(4R)-7-chloro-2,2-dimethyl-3,4-dihydro-2H-chromen-4-yl]-3-(2-oxo-1,2,3,4-tetrahydroquinolin-7-yl)urea] | 1300 nM | 29%
COCC1(COC)C[C@@H](NC(=O)Nc2ccc3c(c2)NC(=O)CC3)c2cc(F)ccc2O1 [Example 237, 1-[(4R)-6-fluoro-2,2-bis(methoxymethyl)-3,4-dihydro-2H-chromen-4-yl]-3-(2-oxo-1,2,3,4-tetrahydroquinolin-7-yl)urea] | 150 nM | 52%
O=C1CCc2ccc(NC(=O)N[C@@H]3CCOc4c3cccc4C(F)(F)F)cc2N1 [Example 238, 1-(2-oxo-1,2,3,4-tetrahydroquinolin-7-yl)-3-[(4R)-8-(trifluoromethyl)-3,4-dihydro-2H-chromen-4-yl]urea] | 510 nM | 47%
O=C1CCc2ccc(NC(=O)N[C@H]3CC4(CCC4)Oc4ccc(F)cc43)cc2N1 [Example 242, 1-[(4S)-6-fluoro-3,4-dihydrospiro[chromene-2,1′-cyclobutan]-4-yl]-3-(2-oxo-1,2,3,4-tetrahydroquinolin-7-yl)urea] | 86 nM | 30%
CC1(C)C[C@H](NC(=O)Nc2ccc3c(c2)NC(=O)CC3)c2cc(F)ccc2O1 [Example 243, 1-[(4S)-6-fluoro-2,2-dimethyl-3,4-dihydro-2H-chromen-4-yl]-3-(2-oxo-1,2,3,4-tetrahydroquinolin-7-yl)urea] | 4900 nM | 45%
O=C1CCc2ccc(NC(=O)N[C@@H]3CC4(CCCC4)Oc4ccccc43)cc2N1 [Example 244, 1-[(4R)-3,4-dihydrospiro[chromene-2,1′-cyclopentan]-4-yl]-3-(2-oxo-1,2,3,4-tetrahydroquinolin-7-yl)urea] | 7100 nM | 41%
C[C@@]1(C(F)(F)F)C[C@@H](NC(=O)Nc2ccc3c(c2)NC(=O)CC3)c2ccccc2O1 [Example 245, 1-[(2S,4R)-2-methyl-2-(trifluoromethyl)-3,4-dihydro-2H-chromen-4-yl]-3-(2-oxo-1,2,3,4-tetrahydroquinolin-7-yl)urea] | 280 nM | 28%
C[C@@]1(CF)C[C@@H](NC(=O)Nc2ccc3c(c2)NC(=O)CC3)c2ccc(Cl)cc2O1 [Example 246, 1-[(2S,4R)-7-chloro-2-(fluoromethyl)-2-methyl-3,4-dihydro-2H-chromen-4-yl]-3-(2-oxo-1,2,3,4-tetrahydroquinolin-7-yl)urea] | 130 nM | 33%

Now those with a lower IC50 [1], led by results:

IC50 [1] | human TRPV1 H^+ (max % remain) [2] | Compound
76 nM | 55% | O=C1CCc2ccc(NC(=O)N[C@@H]3CC(CF)(CF)Oc4c3ccc(Cl)c4F)cc2N1 [Example 231, 1-[(4R)-7-chloro-8-fluoro-2,2-bis(fluoromethyl)-3,4-dihydro-2H-chromen-4-yl]-3-(2-oxo-1,2,3,4-tetrahydroquinolin-7-yl)urea]
74 nM | 36% | CCC1(CC)C[C@@H](NC(=O)Nc2ccc3c(c2)NC(=O)CC3)c2cc(F)ccc2O1 [Example 229, 1-[(4R)-2,2-diethyl-6-fluoro-3,4-dihydro-2H-chromen-4-yl]-3-(2-oxo-1,2,3,4-tetrahydroquinolin-7-yl)urea]
47 nM | 26% | O=C1CCc2ccc(NC(=O)N[C@@H]3CCOc4cc(C(F)(F)F)ccc43)cc2N1 [Example 239, 1-(2-oxo-1,2,3,4-tetrahydroquinolin-7-yl)-3-[(4R)-7-(trifluoromethyl)-3,4-dihydro-2H-chromen-4-yl]urea]
38 nM | 24% | CCCC1(CCC)C[C@@H](NC(=O)Nc2ccc3c(c2)NC(=O)CC3)c2cccc(F)c2O1 [Example 230, 1-[(4R)-8-fluoro-2,2-dipropyl-3,4-dihydro-2H-chromen-4-yl]-3-(2-oxo-1,2,3,4-tetrahydroquinolin-7-yl)urea]
37 nM | 25% | O=C1CCc2ccc(NC(=O)N[C@@H]3CCc4cc(F)ccc43)cc2N1 [Example 240, 1-[(1R)-5-fluoro-2,3-dihydro-1H-inden-1-yl]-3-(2-oxo-1,2,3,4-tetrahydroquinolin-7-yl)urea]
35 nM | 44% | CCC1(CC)C[C@@H](NC(=O)Nc2ccc3c(c2)NC(=O)CC3)c2ccc(C(F)(F)F)cc2O1 [Example 224, 1-[(4R)-2,2-diethyl-7-(trifluoromethyl)-3,4-dihydro-2H-chromen-4-yl]-3-(2-oxo-1,2,3,4-tetrahydroquinolin-7-yl)urea]
32 nM | 27% | O=C1CCc2ccc(NC(=O)N[C@@H]3CCOc4cc(OC(F)(F)F)ccc43)cc2N1 [Example 236, 1-(2-oxo-1,2,3,4-tetrahydroquinolin-7-yl)-3-[(4R)-7-(trifluoromethoxy)-3,4-dihydro-2H-chromen-4-yl]urea]
